Entries after “also recorded” stand apart in the source; their conditions may differ.
Tested on: U937 AML cells
Experiment: AML xenograft model: luciferase-expressing U937 tumor cells in NSG mice, in-vivo bioluminescent imaging
Conditions: U937 i.v., azacitidine 7.5 mg/kg QD 5 days i.p., NAE1 SMI 120 mg/kg QD 5 days on, 2 days rest, magrolimab 250 μg QD
Protocol: FIG. 3 illustrates that NAE1 inhibition in combination with CD47 blockade elicits robust anti-tumor efficacy in an AML xenograft model. Luciferase-expressing U937 tumor cell were transferred to NSG mice by intravenous injection. On day 5, mice were randomized into cohorts and treated with Vehicle [20% (2-Hydroxypropyl)-β-cyclodextrin], azacitidine (7.5 mg/kg QD for 5 days), or NAE1 small molecule inhibitor (120 mg/kg QD for 5 days followed by 2 days/rest) by intraperitoneal injection. Magrolimab was administered 48 hours post chemo treatment (250 μg QD for the entire study) as a single agent or in combination. Tumor growth was monitored using in-vivo bioluminescent imaging and the resulting signal was reported as total flux.
To evaluate, if the combination of NAE1 SMI with magrolimab could increase the elimination of leukemia cells in vivo, a treatment study was conducted in mice transplanted with U937 AML cells. In addition to NAE1 SMI, azacitidine, a hypomethylating and chemotherapeutic agent indicated for AML was also included into the study, since azacitidine had previously been established to enhance elimination of AML cells when combined with magrolimab (Chao, et al., Front Oncol (2020) 9:1380). […]

Row | Molecule | tumor growth / cancer remission (result in words)
1 | Nc1ncn([C@@H]2O[C@H](CO)[C@@H](O)[C@H]2O)c(=O)n1 [azacitidine, 5-azacytidine, reference compound] | did initially slow tumor growth compared to vehicle control but failed to stop cancer progression
2 | magrolimab: anti-CD47 antibody (antibody, chains of the INN, looked up, V domains shown) VH: QVQLVQSGAEVKKPGASVKVSCKASGYTFTNYNMHWVRQAPGQRLEWMGTIYPGNDDTSYNQKFKDRVTITADTSASTAYMELSSLRSEDTAVYYCARGGYRAMDYWGQGTLVTVSS VL: DIVMTQSPLSLPVTPGEPASISCRSSQSIVYSNGNTYLGWYLQKPGQSPQLLIYKVSNRFSGVPDRFSGSGSGTDFTLKISRVEAEDVGVYYCFQGSHVPYTFGQGTKLEIK | did initially slow tumor growth compared to vehicle control but failed to stop cancer progression; also recorded: modest
